Holding throughout (assay): NCI tumour cell line growth inhibition, 48 h
Test [1] relates to CAKI-1.
The subject of test [2] is DU-145.
Test [3] has as its system HCC 2998.
In test [4] the test system is HCT-116.
The subject of test [5] is KM12.
The test system of test [6] is MDA-MB-231.
The subject of test [7] is NCI-H226.
Test [8] relates to NCI-H23.
Test [9] has as its system NCI-H460.
In test [10] the test system is NCI/ADR-RES.
In test [11] the test system is OVCAR-3.
In test [12] the test system is OVCAR-4.
The test system of test [13] is OVCAR-8.
The test system of test [14] is SF-539.
The subject of test [15] is SK-MEL-28.
For test [16], the system named is SK-MEL-2.
Test [17] has as its system SNB-75.
The subject of test [18] is TK-10.
The test system of test [19] is U-251.
Test [20] has as its system UO-31.

SMILES strings stand for the structures.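 The compound was tested at five concentrations on cells cultured in 96-well plates, with a 48-hour exposure period. GI50: concentration for 50% inhibition of growth.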 Calls of active or inactive are those of the source. Cut-off read from the data, not from the text of the source: active = GI50 up to about 1.1 µM and inactive = higher.

On to `N#Cc1c(N2CCCC2)nsc1NCc1ccccc1`, for which the GI50 in test [1], in test [2], in test [3], in test [4], in test [5] and in test [6] was > 100 µM (inactive) each time. Also, the GI50 in test [7], in [8], in [9], in test [10], in test [11] and in [12] was > 100 µM (inactive) throughout. Besides, the GI50 in test [13], in test [14], in test [15], in test [16], in [17] and in test [18] was > 100 µM (inactive) in each case. The GI50 in test [19] was > 100 µM (inactive); in [20], 4.14 µM (inactive).
On to `[O-]c1c2cc(-[n+]3c(-c4ccccc4)cc(-c4ccccc4)cc3-c3ccccc3)cc1CO[C@@H](c1ccccc1)[C@H](c1ccccc1)OCCOCCO[C@@H](c1ccccc1)[C@H](c1ccccc1)OC2`, for which the GI50 is 0.335 µM (active) in test [1]; 0.284 µM (active) in test [2]; 0.181 µM (active) in test [3]; 0.0362 µM (active) in test [4]; 0.0444 µM (active) in test [5]; 0.104 µM (active) in test [6]. The GI50 was 0.0885 µM (active) in [7]; 0.0574 µM (active) in [8]; 0.0363 µM (active) in [9]; 1.14 µM (inactive) in test [10]; 0.0324 µM (active) in [11]; 0.107 µM (active) in test [12]. Besides, the GI50 in test [13] was 0.0351 µM (active); in test [14], 0.408 µM (active); in [15] it was 0.475 µM (active); in test [16] it was 0.0394 µM (active); in [17] it was 0.0486 µM (active); in [18], 0.24 µM (active). In addition, the GI50 in [19] was 0.0297 µM (active); in test [20], 0.379 µM (active).
For the compound `COc1cc2c(cc1OC)C1C(O)C(OC)C=C3CC[N+](C)(C2)C31` (stereo not given), the GI50 in test [1], in test [2], in test [3], in [4], in test [5] and in test [6] was > 100 µM (inactive) each time. Further, the GI50 in test [7], in [8], in [9], in [10], in test [11] and in [12] was > 100 µM (inactive) throughout. Moreover, the GI50 in [13], in [14], in test [15], in test [16], in test [17] and in [18] was > 100 µM (inactive) each time. In addition, the GI50 in test [19] and in test [20] was > 100 µM (inactive) throughout.
Turning to `O=[N+]([O-])c1ccc(C2=NOC(c3ccccc3)N2C23CC4CC(CC(C4)C2)C3)cc1` (stereo not given), the GI50 in test [1] was 1.36 µM (inactive); in [2], 40 µM (inactive); in test [3], 39 µM (inactive); in [4], 22.1 µM (inactive); in [5], 27.4 µM (inactive); in test [6], 31.4 µM (inactive). The GI50 was 30.5 µM (inactive) in test [7]; 41 µM (inactive) in [8]; 19.3 µM (inactive) in test [9]; 35.8 µM (inactive) in [10]; 23.5 µM (inactive) in test [11]; 39.1 µM (inactive) in test [12]. For the same compound, the GI50 in test [13] is 21.5 µM (inactive); in test [14], 54 µM (inactive); in [15], 58.5 µM (inactive); in test [16], 16.4 µM (inactive); in test [17], 21.9 µM (inactive); in test [18] it was 37.2 µM (inactive). Besides, the GI50 is 34.6 µM (inactive) in test [19] and 9.23 µM (inactive) in test [20].
Regarding `O=C(O)CCSC(=S)Nc1ccc([N+](=O)[O-])cc1`, the GI50 is > 100 µM (inactive) in [1]; 43.6 µM (inactive) in [2]; > 89.9 µM (inactive) in test [3]; 60.7 µM (inactive) in [4]; > 80.2 µM (inactive) in test [5]; > 100 µM (inactive) in test [6]. The GI50 in test [7] is > 75.2 µM (inactive); in test [8] it was > 66.7 µM (inactive); in test [9] it was > 82.6 µM (inactive); in [10] it was 40.8 µM (inactive); in test [11], 45 µM (inactive); in test [12] it was > 56.5 µM (inactive). For the same compound, the GI50 is 36.6 µM (inactive) in test [13]; 39.5 µM (inactive) in test [14]; 41.3 µM (inactive) in test [15]; > 61.4 µM (inactive) in test [16]; 33.4 µM (inactive) in test [17]; 51.8 µM (inactive) in test [18]. The GI50 was > 56.2 µM (inactive) in test [19] and > 63.1 µM (inactive) in [20].
Take `O=C1C=CC(=O)N1c1ccc2c(c1)Cc1cc(NC(=O)C(F)(F)F)ccc1-2`: the GI50 in test [1] is 16 µM (inactive); in [2], 16 µM (inactive); in test [3], > 45.2 µM (inactive); in test [4], 7.36 µM (inactive); in test [5], 18.5 µM (inactive); in test [6] it was 16.4 µM (inactive). Moreover, the GI50 in test [7] was 4.84 µM (inactive); in [8], 16.4 µM (inactive); in test [9] it was > 100 µM (inactive); in test [10], 27.7 µM (inactive); in [11], 15.7 µM (inactive); in [12], 17.3 µM (inactive). Also, the GI50 in test [13] was 17.7 µM (inactive); in test [14], 18 µM (inactive); in test [15], 18.1 µM (inactive); in test [16], 18.4 µM (inactive); in [17] it was 16.1 µM (inactive); in test [18], 3 µM (inactive). Further, the GI50 is 18.2 µM (inactive) in test [19] and 13.6 µM (inactive) in [20].
In the case of `O=C(/C=C/c1ccc(F)c(F)c1)OCCc1ccccc1`, the GI50 was 67.1 µM (inactive) in test [1]; > 100 µM (inactive) in [2]; > 100 µM (inactive) in [3]; 74.5 µM (inactive) in test [4]; > 100 µM (inactive) in test [5]; > 100 µM (inactive) in test [6]. Also, the GI50 in test [7] was > 100 µM (inactive); in test [8] it was 72.9 µM (inactive); in test [9] it was > 100 µM (inactive); in test [10], > 100 µM (inactive); in [11], > 100 µM (inactive); in [12] it was 91.8 µM (inactive). Also, the GI50 was > 100 µM (inactive) in test [13]; > 100 µM (inactive) in [14]; > 100 µM (inactive) in test [15]; > 100 µM (inactive) in test [16]; 84.5 µM (inactive) in [17]; > 100 µM (inactive) in [18]. Besides, the GI50 in test [19] was > 100 µM (inactive); in test [20], 90.4 µM (inactive).

For the origin of these results see ChEMBL document CHEMBL1201862, “PubChem BioAssay data set” (2004).
